Test results published in patent US8981087B2, “Benzo [E] [1,3] oxazin-4-one derivatives as phosphoinositide 3-kinase inhibitors” (Karus Therapeutics Limited, priority 2009, dated 2015).
Read-outs that look alike come from different tables or passages of the source.

Columns and labels:
[1] = target: PI3K-p110β (Homo sapiens, UniProt P42338); test: Biochemical PI3K-p110β inhibition
[2] = target: PI3K-p110γ (Homo sapiens, UniProt P48736); test: Biochemical PI3K-p110γ inhibition
[3] = target: PI3K-p110δ (Homo sapiens, UniProt O00329); test: Biochemical PI3K-p110δ inhibition
[4] = target: PI3K-p110 α (Homo sapiens, UniProt P42336); test: Biochemical PI3K-p110α inhibition
PI3K-p110 α, sequence (P42336 whole entry): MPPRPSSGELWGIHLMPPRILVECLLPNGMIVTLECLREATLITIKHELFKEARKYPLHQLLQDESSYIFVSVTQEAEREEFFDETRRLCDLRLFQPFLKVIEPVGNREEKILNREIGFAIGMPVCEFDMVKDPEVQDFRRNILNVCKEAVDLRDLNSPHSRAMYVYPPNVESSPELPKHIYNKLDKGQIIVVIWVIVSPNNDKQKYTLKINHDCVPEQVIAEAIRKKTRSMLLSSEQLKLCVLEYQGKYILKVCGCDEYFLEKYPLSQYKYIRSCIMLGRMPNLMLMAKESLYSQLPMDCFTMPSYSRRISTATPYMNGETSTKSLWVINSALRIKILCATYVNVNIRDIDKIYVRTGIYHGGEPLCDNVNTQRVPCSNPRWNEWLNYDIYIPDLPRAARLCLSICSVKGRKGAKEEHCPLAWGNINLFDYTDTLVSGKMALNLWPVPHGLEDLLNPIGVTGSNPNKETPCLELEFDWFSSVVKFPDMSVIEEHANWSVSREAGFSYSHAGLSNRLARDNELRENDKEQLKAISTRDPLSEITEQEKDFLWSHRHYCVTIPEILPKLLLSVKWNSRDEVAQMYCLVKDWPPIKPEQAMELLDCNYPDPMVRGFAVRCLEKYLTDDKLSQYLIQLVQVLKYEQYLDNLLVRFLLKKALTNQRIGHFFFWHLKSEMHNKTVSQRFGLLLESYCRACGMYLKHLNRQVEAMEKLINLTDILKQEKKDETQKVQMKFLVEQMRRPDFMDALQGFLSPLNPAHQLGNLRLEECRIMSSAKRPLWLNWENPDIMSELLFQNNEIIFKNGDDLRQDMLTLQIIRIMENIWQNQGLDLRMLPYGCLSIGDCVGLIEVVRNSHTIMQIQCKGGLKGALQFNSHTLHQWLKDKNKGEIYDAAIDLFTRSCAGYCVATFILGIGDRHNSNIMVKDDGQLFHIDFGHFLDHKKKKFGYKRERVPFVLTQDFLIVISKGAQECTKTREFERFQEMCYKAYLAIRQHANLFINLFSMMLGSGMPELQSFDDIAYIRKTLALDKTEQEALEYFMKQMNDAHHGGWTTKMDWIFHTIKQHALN
PI3K-p110 α, sequence (P27986 whole entry partner): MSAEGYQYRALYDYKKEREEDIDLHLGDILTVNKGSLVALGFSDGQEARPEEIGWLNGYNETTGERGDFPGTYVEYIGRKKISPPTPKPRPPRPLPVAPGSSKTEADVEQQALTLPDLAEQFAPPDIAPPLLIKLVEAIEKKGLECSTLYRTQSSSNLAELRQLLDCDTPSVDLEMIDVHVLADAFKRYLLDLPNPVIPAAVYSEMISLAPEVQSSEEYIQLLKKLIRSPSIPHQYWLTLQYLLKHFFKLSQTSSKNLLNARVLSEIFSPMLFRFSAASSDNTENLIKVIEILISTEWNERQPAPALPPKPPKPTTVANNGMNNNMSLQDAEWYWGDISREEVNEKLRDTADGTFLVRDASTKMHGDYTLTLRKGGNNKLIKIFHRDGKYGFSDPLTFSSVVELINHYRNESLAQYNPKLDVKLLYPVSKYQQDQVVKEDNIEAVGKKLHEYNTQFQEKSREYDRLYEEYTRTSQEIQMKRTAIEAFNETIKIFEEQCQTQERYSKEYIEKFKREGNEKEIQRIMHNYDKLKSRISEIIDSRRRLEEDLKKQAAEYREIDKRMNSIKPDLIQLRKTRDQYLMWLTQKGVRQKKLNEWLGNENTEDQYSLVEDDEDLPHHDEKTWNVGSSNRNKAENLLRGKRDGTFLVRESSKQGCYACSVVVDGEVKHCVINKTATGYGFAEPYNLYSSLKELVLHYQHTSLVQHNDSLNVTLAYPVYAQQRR

PI3K-p110β, sequence (P42338 whole entry): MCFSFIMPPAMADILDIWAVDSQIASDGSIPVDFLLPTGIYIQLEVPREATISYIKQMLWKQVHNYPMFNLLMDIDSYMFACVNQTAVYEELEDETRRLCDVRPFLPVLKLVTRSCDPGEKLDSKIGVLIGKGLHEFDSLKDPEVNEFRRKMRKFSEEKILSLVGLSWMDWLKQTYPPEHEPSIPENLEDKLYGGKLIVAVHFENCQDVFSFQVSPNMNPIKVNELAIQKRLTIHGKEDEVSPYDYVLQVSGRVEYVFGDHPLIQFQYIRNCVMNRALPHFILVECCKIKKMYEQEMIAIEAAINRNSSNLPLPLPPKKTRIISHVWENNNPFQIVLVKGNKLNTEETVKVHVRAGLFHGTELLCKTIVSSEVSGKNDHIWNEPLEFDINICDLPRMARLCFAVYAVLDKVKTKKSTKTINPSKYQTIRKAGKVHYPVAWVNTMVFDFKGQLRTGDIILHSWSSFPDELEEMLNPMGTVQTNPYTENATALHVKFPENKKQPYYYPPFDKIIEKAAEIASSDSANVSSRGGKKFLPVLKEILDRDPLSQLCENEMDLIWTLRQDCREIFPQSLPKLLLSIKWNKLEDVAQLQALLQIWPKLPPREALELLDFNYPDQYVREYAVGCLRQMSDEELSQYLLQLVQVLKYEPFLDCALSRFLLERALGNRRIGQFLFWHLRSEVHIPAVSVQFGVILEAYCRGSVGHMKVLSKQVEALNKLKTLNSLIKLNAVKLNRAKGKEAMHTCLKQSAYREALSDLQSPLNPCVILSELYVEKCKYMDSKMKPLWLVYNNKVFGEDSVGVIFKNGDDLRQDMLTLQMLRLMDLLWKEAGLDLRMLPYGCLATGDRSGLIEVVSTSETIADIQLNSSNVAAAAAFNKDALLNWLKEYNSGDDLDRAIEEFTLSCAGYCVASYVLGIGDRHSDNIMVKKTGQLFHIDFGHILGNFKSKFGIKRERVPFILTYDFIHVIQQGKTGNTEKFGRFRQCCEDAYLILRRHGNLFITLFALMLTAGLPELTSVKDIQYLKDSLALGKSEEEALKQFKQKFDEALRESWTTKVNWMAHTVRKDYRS
PI3K-p110β, sequence (P27986 whole entry partner): as the sequence (P27986 whole entry partner) above
PI3K-p110γ, sequence (P48736 whole entry): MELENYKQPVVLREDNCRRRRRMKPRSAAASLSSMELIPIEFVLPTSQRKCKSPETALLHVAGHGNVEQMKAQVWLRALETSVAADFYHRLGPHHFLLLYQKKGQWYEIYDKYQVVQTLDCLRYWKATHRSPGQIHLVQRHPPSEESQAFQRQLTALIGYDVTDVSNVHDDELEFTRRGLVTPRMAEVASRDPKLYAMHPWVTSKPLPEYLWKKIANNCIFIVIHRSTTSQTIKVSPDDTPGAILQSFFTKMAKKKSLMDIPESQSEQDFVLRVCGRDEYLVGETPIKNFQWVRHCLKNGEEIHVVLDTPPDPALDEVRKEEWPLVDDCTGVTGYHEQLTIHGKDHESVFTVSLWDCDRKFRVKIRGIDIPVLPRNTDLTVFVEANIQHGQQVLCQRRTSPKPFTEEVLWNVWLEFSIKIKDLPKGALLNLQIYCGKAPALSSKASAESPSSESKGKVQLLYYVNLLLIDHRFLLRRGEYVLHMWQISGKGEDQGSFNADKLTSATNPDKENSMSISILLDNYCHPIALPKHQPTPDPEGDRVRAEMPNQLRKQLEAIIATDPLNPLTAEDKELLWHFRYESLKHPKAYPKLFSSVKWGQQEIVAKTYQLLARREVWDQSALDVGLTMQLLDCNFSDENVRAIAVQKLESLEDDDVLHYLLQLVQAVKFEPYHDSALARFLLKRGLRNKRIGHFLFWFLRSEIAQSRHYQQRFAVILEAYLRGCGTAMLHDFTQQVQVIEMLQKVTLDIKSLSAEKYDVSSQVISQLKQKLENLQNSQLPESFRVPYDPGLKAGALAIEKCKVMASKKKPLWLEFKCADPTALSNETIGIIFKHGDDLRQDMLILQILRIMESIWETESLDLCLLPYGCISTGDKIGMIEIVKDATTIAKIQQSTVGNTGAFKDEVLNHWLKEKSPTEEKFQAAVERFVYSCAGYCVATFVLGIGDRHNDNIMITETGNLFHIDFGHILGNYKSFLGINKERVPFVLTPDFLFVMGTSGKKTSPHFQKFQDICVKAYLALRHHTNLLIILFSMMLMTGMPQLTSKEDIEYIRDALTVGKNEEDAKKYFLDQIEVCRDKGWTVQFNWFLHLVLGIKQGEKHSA
PI3K-p110δ, sequence (O00329 whole entry): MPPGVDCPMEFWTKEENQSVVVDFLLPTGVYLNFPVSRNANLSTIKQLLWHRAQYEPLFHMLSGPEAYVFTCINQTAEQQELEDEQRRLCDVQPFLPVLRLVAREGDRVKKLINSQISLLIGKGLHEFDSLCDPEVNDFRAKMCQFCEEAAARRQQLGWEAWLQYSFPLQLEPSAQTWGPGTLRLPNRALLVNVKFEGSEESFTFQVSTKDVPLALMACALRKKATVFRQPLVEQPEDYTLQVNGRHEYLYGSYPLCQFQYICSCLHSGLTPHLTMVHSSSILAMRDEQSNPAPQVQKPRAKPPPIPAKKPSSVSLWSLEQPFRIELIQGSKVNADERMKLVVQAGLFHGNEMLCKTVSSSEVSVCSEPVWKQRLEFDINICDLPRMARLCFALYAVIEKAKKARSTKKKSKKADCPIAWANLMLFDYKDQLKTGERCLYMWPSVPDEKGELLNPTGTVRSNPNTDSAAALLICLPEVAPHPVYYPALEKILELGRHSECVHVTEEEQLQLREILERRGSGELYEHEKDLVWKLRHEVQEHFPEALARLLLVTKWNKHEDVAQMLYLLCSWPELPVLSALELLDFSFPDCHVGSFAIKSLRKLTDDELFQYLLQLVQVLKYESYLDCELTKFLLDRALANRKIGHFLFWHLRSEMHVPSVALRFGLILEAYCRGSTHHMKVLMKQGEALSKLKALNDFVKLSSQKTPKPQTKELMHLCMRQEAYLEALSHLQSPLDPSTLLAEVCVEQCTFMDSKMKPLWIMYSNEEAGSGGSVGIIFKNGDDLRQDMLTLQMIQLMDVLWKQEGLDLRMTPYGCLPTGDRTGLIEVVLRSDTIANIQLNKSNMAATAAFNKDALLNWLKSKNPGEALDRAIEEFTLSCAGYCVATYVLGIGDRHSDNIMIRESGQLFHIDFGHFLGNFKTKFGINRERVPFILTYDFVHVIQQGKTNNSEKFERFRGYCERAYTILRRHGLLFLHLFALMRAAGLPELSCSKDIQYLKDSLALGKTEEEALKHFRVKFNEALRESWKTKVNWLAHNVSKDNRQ
PI3K-p110δ, sequence (P27986 whole entry partner): as the sequence (P27986 whole entry partner) above

| IC50 ([1]; Class IA enzyme, read-out: IC50 PI3K-p110β (uM) (Class IA Enzyme)) [µM] | IC50 ([2]; Class IB enzyme, read-out: IC50 PI3K-p110γ (uM) (Class IB Enzyme)) [µM] | Compound | class IA/IB PI3K selectivity ([1]; compared with industry-standard inhibitor LY294002, p110β vs p110γ) | IC50 [3] [nM] | IC50 ([1]; read-out: IC50 PI3K-p110β) [µM] | selectivity for PI3K-p110β ([1]; versus p110α, p110δ, p110γ) | IC50 [4] [µM] | IC50 ([2]; read-out: IC50 PI3K-p110γ) [µM] |
| --- | --- | --- | --- | --- | --- | --- | --- | --- |
| 2.34 | 20.5 | Nc1ccc(-c2cccc3c(=O)nc(N4CCOCC4)oc23)cc1 [Compound A, 8-(4-aminophenyl)-2-morpholino-4H-benzo[e][1,3]oxazin-4-one] | greater class IA/IB PI3K selectivity compared with industry-standard inhibitor, LY294002 |  |  |  |  |  |
|  |  | Nc1ccc(-c2cccc3c(=O)nc(N4CCOCC4)oc23)c(F)c1 [Compound B, 8-(4-Amino-2-fluoro-phenyl)-2-morpholin-4-yl-benzo[e][1,3]oxazin-4-one] |  | 1690 | 0.538 | displays selectivity for PI3K-p110β | 3.41 | 17.8 |
